The source of these data is patent US9682111B2, “Method for preventing or treating neurodegenerative diseases” (priority 2012, dated 2017).

The test system of one assay is PC12 cells. As to the kind of experiment: MPP+ induced injury of PC12 cells (PD model cells), MTT assay. Conditions: PC12 cells with MPP+ and test substance, 24 hours; for average OD value: MTT assay, model group 1.061 ± 0.035, normal control 2.198 ± 0.046; for Relative Cell Activity %: MTT, normal control 100, model group 48.3. The format is cell-based, rat. Set-up: Relative Cell Activity %: concentration or dose not given beside the values. On the procedure:
PC12 cells (rat adrenal pheochromocytoma cell strain), which show many similar characters with dopaminergic neurons, was cultured in DMEM medium (which contains 5% horse serum, 5% fetal bovine serum, 100 U/mL penicillin, 100 µg/mL streptomycin), in an incubator under 37° C., saturated humidity, and 5% CO2. The medium was replaced every 2-3 days, and the cells were subcultured when the cells cover 70-80% area of the plate. Cells in log phase and under fine growth conditions were chosen, and inoculated in 96 well plate at 1-5×10^5 and 100 μl per well. After culturing under 37° C. for 24 hours and the cells adhere to the walls of the wells, MPP^+ medium was added to the model group, a medium containing MPP^+(1-methyl-4-phenylpyridinium) and semen biotae extracts/diterpenoid compounds were added to experimental group, and a medium with no drug was added to the blank control group. Then the media were continued to culture in the incubator for 24 hours. MTT assay was used to evaluate cell activity.
(Tetrazolium dyes change colour on reduction, which living cells bring about.)

Assay [1] deals with Caenorhaditiselegans transgene strain CL4176 (expressing Aβ protein). The assay is described as follows: Paralysis of AD model elegans caused by Aβ (transgene strain CL4176). The assay is classed as in vivo, Caenorhabditis elegans. Conditions: 15° C. then 26° C., paralysis counted every three hours, blank control 49.503 ± 0.445. On the procedure:
Caenorhaditiselegans (Caenorhaditiselegans) transgene strain CL4176 (expressing Aβ protein under temperature inducing) were synchronized and cultured under 15° C. to L1 phase, and then added into coated OP50 microbial medium dishes containing the extracted drugs with different concentrations, at around 25/dish. Three dishes were used in one group. The dishes were cultured under 15° C. for 12 hours and then cultured under 26° C. 36 hours after the change of culturing temperature, the paralyses of the elegans were observed. Count every three hours until all the elegans was paralyzed.

Assay [2] relates to pPD95.86::α-SYN transgenic C. elegans. The assay is described as follows: Lifespan of α-SYN transgenic C. elegans (anti-elegan aging experiment). The assay is classed as in vivo, Caenorhabditis elegans. To be noted: α-syn transgenic elegans on NGM plates with OP50, 20° C.; α-syn model 11.8 ± 3.66, N2 16 ± 5.68. The text has this: pPD95.86::α-SYN transgenic C. elegans were establish by Sun et al. and preserved in the Department of Neurosurgery, the First Affiliated Hospital of Sun Yat-sen University, China. The method for establishing the α-SYN transgenic C. elegans was described in detail by Sun et al. (Toxic effect of Parkinson's disease gene α-Synuclein on Caenorhabditis elegants. New Medicine, 2013, 44 (4): 273-277.)
In brief, a wild-human α-SYN cDNA were amplified by PCR and inserted into the plasmid pPD95.86. Transgenic plasmids were isolated and injected into the gonad of synchronized N2 C. elegants at a concentration of 100 ng/μl. The transgenic F2 (second generation) worms was selected and then mutated under UV radiation. The UV treated F2 worms were backcrossed to wild type worms to generate stable α-SYN transgenic lines. The α-SYN transgenic lines express α-SYN and therefore have shorter life span and impaired motor functions.
A solution containing E. coli OP50, and biotae extracts and diterpenoid compounds of different concentrations are coated onto NGM plates. N2 elegans are synchronized to L4 phase under 20° C. Three plates are employed in one experimental group, and each plate includes about 25 elegans. The number of live elegans is recorded every day, and the elegans are transferred into a new NGM plate when the food is used up or there is mold contamination. The experiment pends till all the elegans are dead.

Consider `C=C1CC[C@@H]2[C@](C)(CCC[C@]2(C)C(=O)O)[C@H]1CCC(C)=O` [1-Naphthalenecarboxylic acid, decahydro-1,4a-dimethyl-6-methylene-5-(3-oxobutyl)-, (1S,4aR,5S,8aR)-], for which, in the assay on PC12 cells, the “average OD value” turned out to be 1.391 ± 0.038 and the “Relative Cell Activity %” value was found to be 63.3%. Moreover, the “Average Living Time” value in assay [1] is 50.991 ± 0.568 h. In addition, the “Living time” value in assay [2] stood at 14.35 ± 3.9 days.
On to `C=C1CC[C@@H]2[C@](C)(CCC[C@]2(C)C(=O)O)[C@H]1/C=C/C(C)=O` [1-Naphthalenecarboxylic acid, decahydro-1,4a-dimethyl-6-methylene-5-[(1E)-3-oxo-1-butenyl]-, (1S,4aS,5S,8aR)-], for which the “Living time” value in assay [2] amounted to 14.75 ± 2.22 days.
Regarding `CC(C)c1c(O)ccc2c1CCC1C2(C)C(=O)CC(O)C1(C)C` (stereo not drawn) [1-oxo-3β-hydroxytotarol], in the assay on PC12 cells, the “average OD value” is listed as 1.448 ± 0.057 and the “Relative Cell Activity %” value is recorded as 65.9%. The “Average Living Time” value in assay [1] is 53.478 ± 0.357 h. Besides, the “Living time” value in assay [2] was determined as 14.6 ± 3.63 days.
The matching figures for `C=CC1(C)C=C2C=CC3C(C)(C(=O)O)CCCC3(C)C2CC1` (stereo not shown) [6,7-Dehydrosandarapimaric Acid]: 1.435 ± 0.044, 65.3%, 52.435 ± 0.484 h and 14.7 ± 2.7 days.
With `C=CC1(C)C=C2C(O)CC3C(C)(C(=O)O)CCCC3(C)C2CC1` (stereo not drawn) [7α-Hydroxysandaracopimaric acid], in assay [1], the “Average Living Time” value came to 53.067 ± 0.455 h. In addition, the “Living time” value in assay [2] stood at 14.3 ± 3.01 days.
For the molecule `C=C[C@@](C)(O)CCC1C(=C)C(O)CC2C(C)(C(=O)O)CCCC12C` (stereo partly drawn) [7β,13S-dihydroxylabda-8(17),14-dien-19-oic acid], in the assay with PC12 cells, the “average OD value” came out at 1.359 ± 0.045 and the “Relative Cell Activity %” value was 61.8%. Further, the “Living time” value in assay [2] turned out to be 13.7 ± 2.85 days.
The matching figures for `C=C1CCC2C(C)(C(=O)O)CCCC2(C)C1CC1(O)OCC(O)C1(C)O` (stereo not shown) [12,13,14-trihydroxylabda-12,15-epoxy-8(17)-en-19-oic acid]: 1.404 ± 0.057, 63.9% and 14 ± 3.67 days.
Consider `C=CC(C)(O)C(O)CC1C(=C)CCC2C(C)(C(=O)O)CCCC12C` (stereo not shown) [12,13-Dihydroxylabda-8(17),14-dien-19-oic acid], for which the “Average Living Time” value in assay [1] is given as 51.008 ± 0.434 h. Further, in assay [2], the “Living time” value amounted to 14.15 ± 3.1 days.
The matching figures for `C=C[C@@](C)(O)CC[C@H]1C(=C)CC[C@@H]2[C@]1(C)CCC[C@]2(C)C(=O)O` [13-Epicupressic acid]: 54.015 ± 0.432 h and 13.7 ± 3.34 days.
With `C=C1CCC2C(C)(C(=O)O)CCCC2(C)C1C/C=C(\C)[C@@H](O)CO` (stereo partly drawn) [14(R),15-Dihydroxy-8(17),12(E)-labdadien-19-oic acid], in the assay with PC12 cells, the “average OD value” was determined as 1.346 ± 0.059 and the “Relative Cell Activity %” value was 61.2%. Besides, the “Living time” value in assay [2] stood at 14.5 ± 3.76 days.
The matching figures for `C=C1CCC2C(C)(C(=O)OC)CCCC2(C)C1C/C=C/C` (stereo not shown) [14,15-Bisnor-8(17),12E-labdadien-19-oic acid methyl ester]: 1.536 ± 0.035, 69.9% and 14.8 ± 3.24 days.
`C=C1CCC2C(C)(C(=O)O)CCCC2(C)C1CCCC(=O)O` (stereo not shown) [14,15-bisnor-8(17)-labdene-16,19-dioic acid]: in the assay with PC12 cells, the “average OD value” was found to be 1.292 ± 0.072 and the “Relative Cell Activity %” value is reported as 58.8%. In assay [1], the “Average Living Time” value is 51.892 ± 0.322 h. Also, the “Living time” value in assay [2] stood at 14.35 ± 3.38 days.
As for `C=C1CCC2C(C)(C(=O)O)CCCC2(C)C1CC/C(=C\CO)CO` (stereo not shown) [15,16-Dihydroxy-8(17),13(E)-labdadien-19-oic acid], the “Average Living Time” value in assay [1] was found to be 51.217 ± 0.397 h. The “Living time” value in assay [2] was 14.35 ± 2.62 days.
`C=C1CCC2C(C)(C(=O)O)CCCC2(C)C1CCC1=CC(O)OC1=O` (stereo not shown) [15-Hydroxypinusolidic acid]: in the assay on PC12 cells, the “average OD value” is given as 1.585 ± 0.057 and the “Relative Cell Activity %” value amounted to 72.1%. Besides, the “Average Living Time” value in assay [1] was 51.575 ± 0.257 h. Further, the “Living time” value in assay [2] came to 14.1 ± 4.68 days.
For the molecule `C=C1CCC2C(C)(C(=O)O)CCCC2(C)C1CCC1=CC(OC)OC1=O` (stereo not shown) [15-Methoxypinusolidic acid], the “Average Living Time” value in assay [1] turned out to be 55.012 ± 0.399 h. In assay [2], the “Living time” value was found to be 13.55 ± 4.05 days.
The matching figures for `C=C1CCC2C(C)(C(=O)O)CCCC2(C)C1CC1OCC=C1CC` (stereo not shown) [16-Methyl-12,15-epoxy-8(17),13-labdadien-19-oic acid]: 54.336 ± 0.377 h and 13.95 ± 3.9 days.
For `C=C1CC[C@@H]2[C@](C)(CCC[C@]2(C)C(=O)O)[C@H]1CC[C@H](C)CCO` [Imbricatolic acid], the “Average Living Time” value in assay [1] was determined as 55.857 ± 0.428 h. Further, the “Living time” value in assay [2] is 14.25 ± 2.67 days.
The matching figures for `C=C1CC[C@@H]2[C@](C)(CCC[C@]2(C)C(=O)O)[C@H]1CC/C(C)=C/CO` [Isocupressic acid]: 53.879 ± 0.414 h and 14.85 ± 2.66 days.
For the molecule `C=C[C@@]1(C)CC[C@H]2C(=CC[C@@H]3[C@]2(C)CCC[C@@]3(C)C(=O)O)C1` [Isopimaric acid], the “Average Living Time” value in assay [1] is listed as 52.785 ± 0.432 h. In addition, the “Living time” value in assay [2] worked out at 14.9 ± 1.55 days.
`C=C1CC[C@@H]2[C@](C)(CCC[C@]2(C)C(=O)O)[C@H]1C/C=C(\C)C=O` [Naphthalenecarboxylic acid, decahydro-1,4a-dimethyl-6-methylene-5-[(2E)-3-methyl-4-oxo-2-butenyl]-, (1S,4aR,5S,8aR)-]: in the assay on PC12 cells, the “average OD value” was determined as 1.236 ± 0.085 and the “Relative Cell Activity %” value is 56.2%. Further, in assay [1], the “Average Living Time” value is on record as 52.136 ± 0.415 h. Besides, in assay [2], the “Living time” value worked out at 14.4 ± 3.42 days.
Take `C=C1CC[C@@H]2[C@](C)(CCC[C@]2(C)C(=O)OC)[C@H]1CCC1=CCOC1=O` [Pinusolide]: the “Average Living Time” value in assay [1] worked out at 54.003 ± 0.287 h. The “Living time” value in assay [2] came out at 15.6 ± 2.74 days.
For `C=C1CC[C@@H]2[C@](C)(CCC[C@]2(C)C(=O)O)[C@H]1CCC1=CCOC1=O` [Pinusolidic acid], in the assay with PC12 cells, the “average OD value” is recorded as 1.224 ± 0.057 and the “Relative Cell Activity %” value is recorded as 55.7%. Further, in assay [2], the “Living time” value was determined as 13.8 ± 3.37 days.
`C=CC1(C)C=C2CCC3C(C)(CO)C(O)CCC3(C)C2CC1` (stereo not drawn) [Sandaracopimaradiene-3β,18-diol]: in the assay with PC12 cells, the “average OD value” worked out at 1.652 ± 0.015 and the “Relative Cell Activity %” value worked out at 75.1%. Also, the “Living time” value in assay [2] was found to be 14.05 ± 3.49 days.
Consider `C=C[C@]1(C)C=C2CC[C@@H]3[C@](C)(CCC[C@@]3(C)C(=O)O)[C@H]2CC1` [Sandaracopimaric acid], for which the “Average Living Time” value in assay [1] amounted to 53.616 ± 0.443 h. Moreover, the “Living time” value in assay [2] was 15.85 ± 3.1 days.
In the case of Isopinusolide, in assay [1], the “Average Living Time” value is 53.988 ± 0.320 h. Moreover, the “Living time” value in assay [2] was 13.9 ± 3.65 days.
Platyclolactonic Acid: the “Living time” value in assay [2] came to 13.95 ± 2.26 days.
With Platyclolactonic Acid Methyl Ester, the “Average Living Time” value in assay [1] amounted to 51.393 ± 0.487 h. In assay [2], the “Living time” value is 14.3 ± 3.08 days.
